Test results taken from ChEMBL document CHEMBL1145521, “Lenalidomide inhibits the malignant clone and up-regulates the SPARC gene mapping to the commonly deleted region in 5q- syndrome patients” (2007).
Activity calls are given as the source filed them. The calls are words filed in the database; no cut-off is given here.

Tests used:
[1] = Down-regulation of TUBB2 gene expression in healthy human erythroblasts after 7 days relative to control; type: functional
[2] = Down-regulation of HBB gene expression in erythroblasts from myelodysplastic syndrome del(5q) patient after 7 days relative to control; type: functional; conditions: Homo sapiens
[3] = Down-regulation of HBB gene expression in healthy human erythroblasts after 7 days relative to control; type: functional
[4] = Down-regulation of HBBP1 gene expression in erythroblasts from myelodysplastic syndrome del(5q) patient after 7 days relative to control; type: functional; conditions: Homo sapiens
[5] = Down-regulation of HBBP1 gene expression in healthy human erythroblasts after 7 days relative to control; type: functional
[6] = Down-regulation of SPTA1 gene expression in erythroblasts from myelodysplastic syndrome del(5q) patient after 7 days relative to control; type: functional; conditions: Homo sapiens
[7] = Down-regulation of HBG2 gene expression in erythroblasts from myelodysplastic syndrome del(5q) patient after 7 days relative to control; type: functional; conditions: Homo sapiens
[8] = Down-regulation of HBG2 gene expression in healthy human erythroblasts after 7 days relative to control; type: functional
[9] = Down-regulation of KLF1 gene expression in erythroblasts from myelodysplastic syndrome del(5q) patient after 7 days relative to control; type: functional; conditions: Homo sapiens
[10] = Down-regulation of KLF1 gene expression in healthy human erythroblasts after 7 days relative to control; type: functional
[11] = Down-regulation of GYPA gene expression in erythroblasts from myelodysplastic syndrome del(5q) patient after 7 days relative to control; type: functional; conditions: Homo sapiens
[12] = Down-regulation of GYPA gene expression in healthy human erythroblasts after 7 days relative to control; type: functional
[13] = Down-regulation of CXADR gene expression in erythroblasts from myelodysplastic syndrome del(5q) patient after 7 days relative to control; type: functional; conditions: Homo sapiens
[14] = Down-regulation of CXADR gene expression in healthy human erythroblasts after 7 days relative to control; type: functional
[15] = Down-regulation of GYPB gene expression in erythroblasts from myelodysplastic syndrome del(5q) patient after 7 days relative to control; type: functional; conditions: Homo sapiens
[16] = Down-regulation of GYPB gene expression in healthy human erythroblasts after 7 days relative to control; type: functional
[17] = Down-regulation of ALAS2 gene expression in erythroblasts from myelodysplastic syndrome del(5q) patient after 7 days relative to control; type: functional; conditions: Homo sapiens
[18] = Down-regulation of ALAS2 gene expression in healthy human erythroblasts after 7 days relative to control; type: functional
[19] = Down-regulation of GYPE gene expression in erythroblasts from myelodysplastic syndrome del(5q) patient after 7 days relative to control; type: functional; conditions: Homo sapiens
[20] = Down-regulation of GYPE gene expression in healthy human erythroblasts after 7 days relative to control; type: functional
[21] = Down-regulation of AMMECR1 gene expression in erythroblasts from myelodysplastic syndrome del(5q) patient after 7 days relative to control; type: functional; conditions: Homo sapiens
[22] = Down-regulation of AMMECR1 gene expression in healthy human erythroblasts after 7 days relative to control; type: functional
[23] = Down-regulation of THRB gene expression in erythroblasts from myelodysplastic syndrome del(5q) patient after 7 days relative to control; type: functional; conditions: Homo sapiens
[24] = Down-regulation of THRB gene expression in healthy human erythroblasts after 7 days relative to control; type: functional
[25] = Down-regulation of LRP11 gene expression in erythroblasts from myelodysplastic syndrome del(5q) patient after 7 days relative to control; type: functional; conditions: Homo sapiens
[26] = Down-regulation of LRP11 gene expression in healthy human erythroblasts after 7 days relative to control; type: functional
[27] = Down-regulation of SPTA1 gene expression in healthy human erythroblasts after 7 days relative to control; type: functional
[28] = Upregulation of CHI3L1 gene expression in healthy human erythroblasts after 7 days relative to control; type: functional
[29] = Upregulation of CHI3L1 gene expression in erythroblasts from myelodysplastic syndrome del(5q) patient after 7 days relative to control; type: functional; conditions: Homo sapiens
[30] = Upregulation of CXCL1 gene expression in erythroblasts from myelodysplastic syndrome del(5q) patient after 7 days relative to control; type: functional; conditions: Homo sapiens
[31] = Upregulation of CXCL1 gene expression in healthy human erythroblasts after 7 days relative to control; type: functional
[32] = Upregulation of TPBG gene expression in erythroblasts from myelodysplastic syndrome del(5q) patient after 7 days relative to control; type: functional; conditions: Homo sapiens
[33] = Upregulation of TPBG gene expression in healthy human erythroblasts after 7 days relative to control; type: functional
[34] = Upregulation of MAOA gene expression in erythroblasts from myelodysplastic syndrome del(5q) patient after 7 days relative to control; type: functional; conditions: Homo sapiens
[35] = Upregulation of MAOA gene expression in healthy human erythroblasts after 7 days relative to control; type: functional
[36] = Upregulation of PRG3 gene expression in erythroblasts from myelodysplastic syndrome del(5q) patient after 7 days relative to control; type: functional; conditions: Homo sapiens
[37] = Upregulation of RTN1 gene expression in erythroblasts from myelodysplastic syndrome del(5q) patient after 7 days relative to control; type: functional; conditions: Homo sapiens
[38] = Upregulation of RTN1 gene expression in healthy human erythroblasts after 7 days relative to control; type: functional
[39] = Upregulation of ANGPT2 gene expression in erythroblasts from myelodysplastic syndrome del(5q) patient after 7 days relative to control; type: functional; conditions: Homo sapiens
[40] = Upregulation of ANGPT2 gene expression in healthy human erythroblasts after 7 days relative to control; type: functional
[41] = Upregulation of CYP4F3 gene expression in erythroblasts from myelodysplastic syndrome del(5q) patient after 7 days relative to control; type: functional; conditions: Homo sapiens
[42] = Upregulation of CYP4F3 gene expression in healthy human erythroblasts after 7 days relative to control; type: functional
[43] = Upregulation of DSC2 gene expression in erythroblasts from myelodysplastic syndrome del(5q) patient after 7 days relative to control; type: functional; conditions: Homo sapiens
[44] = Upregulation of DSC2 gene expression in healthy human erythroblasts after 7 days relative to control; type: functional
[45] = Upregulation of PRG3 gene expression in healthy human erythroblasts after 7 days relative to control; type: functional
[46] = Upregulation of SEC14L5 gene expression in erythroblasts from myelodysplastic syndrome del(5q) patient after 7 days relative to control; type: functional; conditions: Homo sapiens
[47] = Upregulation of SEC14L5 gene expression in healthy human erythroblasts after 7 days relative to control; type: functional
[48] = Down-regulation of HBA2 gene expression in erythroblasts from myelodysplastic syndrome del(5q) patient after 7 days relative to control; type: functional; conditions: Homo sapiens
[49] = Down-regulation of HBA2 gene expression in healthy human erythroblasts after 7 days relative to control; type: functional
[50] = Down-regulation of HBA1 gene expression in erythroblasts from myelodysplastic syndrome del(5q) patient after 7 days relative to control; type: functional; conditions: Homo sapiens
[51] = Down-regulation of HBA1 gene expression in healthy human erythroblasts after 7 days relative to control; type: functional
[52] = Down-regulation of TUBB2 gene expression in erythroblasts from myelodysplastic syndrome del(5q) patient after 7 days relative to control; type: functional; conditions: Homo sapiens
Homo sapiens [53] = organism: Homo sapiens; test: Inhibition of cell proliferation of human bone marrow mononuclear cells assessed as [3H]thymidine incorporation upto 500 uM after 4 days; type: functional
Homo sapiens [54] = organism: Homo sapiens; test: Inhibition of cell proliferation of CD34+ progenitor cells from myelodysplastic syndrome del(5q) patient after 14 days; type: functional
Homo sapiens [55] = organism: Homo sapiens; test: Growth inhibition of CD34+ progenitor cells from non-del(5q) myelodysplastic syndrome patient after 14 days; type: functional
[56] = Growth inhibition of CD34- mononuclear cells from myelodysplastic syndrome del(5q-) patient by FISH after 7 days; type: functional, Homo sapiens
[57] = Decrease in erythroid differentiation of CD34+ progenitor cells from myelodysplastic syndrome del(5q) patient assessed as CD36 expression after 14 days; type: functional; conditions: Homo sapiens
[58] = Decrease in erythroid differentiation of CD34+ progenitor cells from myelodysplastic syndrome del(5q) patient assessed as glycophorin A expression after 14 days; type: functional; conditions: Homo sapiens
[59] = Decrease in myeloid differentiation of CD34+ progenitor cells from myelodysplastic syndrome del(5q) patient assessed as CD33 expression after 14 days; type: functional; conditions: Homo sapiens
[60] = Upregulation of INHBA gene expression in erythroblasts from myelodysplastic syndrome del(5q) patient after 7 days relative to control; type: functional; conditions: Homo sapiens
[61] = Upregulation of INHBA gene expression in healthy human erythroblasts after 7 days relative to control; type: functional
[62] = Upregulation of PPIC gene expression in healthy human erythroblasts after 7 days relative to control; type: functional
[63] = Upregulation of SPARC gene expression in erythroblasts from myelodysplastic syndrome del(5q) patient after 7 days relative to control; type: functional; conditions: Homo sapiens
[64] = Upregulation of PPIC gene expression in erythroblasts from myelodysplastic syndrome del(5q) patient after 7 days relative to control; type: functional; conditions: Homo sapiens
[65] = Upregulation of VSIG4 gene expression in healthy human erythroblasts after 7 days relative to control; type: functional
[66] = Upregulation of DEFA1 gene expression in healthy human erythroblasts after 7 days relative to control; type: functional
[67] = Upregulation of VSIG4 gene expression in erythroblasts from myelodysplastic syndrome del(5q) patient after 7 days relative to control; type: functional; conditions: Homo sapiens
[68] = Upregulation of DEFA1 gene expression in erythroblasts from myelodysplastic syndrome del(5q) patient after 7 days relative to control; type: functional; conditions: Homo sapiens
[69] = Upregulation of SPARC gene expression in healthy human erythroblasts after 7 days relative to control; type: functional
[70] = Increase in SPARC gene expression in erythroid progenitor cells from non-del(5q) myelodysplastic syndrome patient by RT-PCR after 7 days relative to control; type: functional, Homo sapiens
[71] = Increase in activin A gene expression in erythroid progenitor cells from non-del(5q) myelodysplastic syndrome patient by RT-PCR after 7 days relative to control; type: functional, Homo sapiens
[72] = Increase in SPARC gene expression in CD34- mononuclear cells from del(5q) myelodysplastic syndrome patient by RT-PCR after 2 days relative to control
[73] = Increase in SPARC gene expression in CD34- mononuclear cells from del(5q) myelodysplastic syndrome patient by RT-PCR after 7 days relative to control
[74] = Increase in activin A gene expression in CD34- mononuclear cells from del(5q) myelodysplastic syndrome patient by RT-PCR after 2 days relative to control
[75] = Increase in activin A gene expression in CD34- mononuclear cells from del(5q) myelodysplastic syndrome patient by RT-PCR after 7 days relative to control

Nc1cccc2c1CN(C1CCC(=O)NC1=O)C2=O (stereo not given) [LENALIDOMIDE]
Fold change [1]: 13.9 | Fold change [2]: 7.7 | Fold change [3]: 3.4 | Fold change [4]: 4.9 | Fold change [5]: 2.8 | Fold change [6]: 4.5 | Fold change [7]: -4.4 | Fold change [8]: -1.4 | Fold change [9]: 3.7 | Fold change [10]: 3.4 | Fold change [11]: 3.7 | Fold change [12]: 9.1 | Fold change [13]: 3.6 | Fold change [14]: 5.9 | Fold change [15]: 3.6 | Fold change [16]: 2.9 | Fold change [17]: 3.3 | Fold change [18]: 7.6 | Fold change [19]: 3 | Fold change [20]: 2.2 | Fold change [21]: 2.9 | Fold change [22]: -3.2 | Fold change [23]: 2.8 | Fold change [24]: 2 | Fold change [25]: 2.4 | Fold change [26]: 4.8 | Fold change [27]: 4.8 | Fold change [28]: 10.3 | Fold change [29]: 6.1 | Fold change [30]: 4.1 | Fold change [31]: 2.9 | Fold change [32]: 4.1 | Fold change [33]: 5.4 | Fold change [34]: 3.9 | Fold change [35]: 2.1 | Fold change [36]: 2.9 | Fold change [37]: 3.5 | Fold change [38]: 5.4 | Fold change [39]: 3.3 | Fold change [40]: 1.9 | Fold change [41]: 3.1 | Fold change [42]: 3.5 | Fold change [43]: 3 | Fold change [44]: 3.6 | Fold change [45]: 1.7 | Fold change [46]: 2.8 | Fold change [47]: 3.6 | Fold change [48]: 11 | Fold change [49]: 9.7 | Fold change [50]: 8.5 | Fold change [51]: 11.1 | Fold change [52]: 8.2 | Activity (Homo sapiens [53]): inactive | Activity (Homo sapiens [54]): Active | Activity (Homo sapiens [55]): Active | growth inhibition (GI) [56]: 65% | Activity [57]: Active | Activity [58]: Active | Activity [59]: Active | Fold change [60]: 4.9 | Fold change [61]: 2.5 | Fold change [62]: 10.9 | Fold change [63]: 4.1 | Fold change [64]: 5.2 | Fold change [65]: 9.5 | Fold change [66]: 16.3 | Fold change [67]: 9.5 | Fold change [68]: 8.9 | Fold change [69]: 4.8 | Fold change [70]: 9.3 | Fold change [71]: 12.6 | Fold change [72]: 8.1 | Fold change [73]: 5.8 | Fold change [74]: 2.5 | Fold change [75]: 2.6
